This passage reports T/C results from PubChem BioAssay AID330 (DTP/NCI, 2004).

The subject of this test is P388 leukemia ip, CD2F1 mice, survival T/C. In words: NCI In Vivo Anticancer Drug Screen. Data for tumor model P388 Leukemia (intraperitoneal) in CD2F1 (CDF1) mice. The conditions noted are these: endpoint: median survival time, higher = longer survival. The method, boiled down: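 Mice carrying the transplanted tumor received test compound or vehicle. Survival was recorded in each group, and the value is the treated-group measurement divided by that of the vehicle-treated control group.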

Setting [1] is: dose: 50.0 mg/kg/injection, schedule: Q01DX005 (ip), vehicle: saline with Tween-80.
The mark [2] stands for this setting: dose: 100.0 mg/kg/injection, schedule: Q01DX005 (ip), vehicle: saline with Tween-80.
The mark [3] stands for this setting: dose: 50.0 mg/kg/injection, schedule: Q01DX009 (ip), vehicle: Klucel (hydroxypropylcellulose) (HPC).
Where [4] appears, read: dose: 100.0 mg/kg/injection, schedule: Q01DX009 (ip), vehicle: Klucel (hydroxypropylcellulose) (HPC).
Where [5] appears, read: dose: 200.0 mg/kg/injection, schedule: Q01DX009 (ip), vehicle: Klucel (hydroxypropylcellulose) (HPC).
The mark [6] stands for this setting: dose: 60.0 mg/kg/injection, schedule: Q01DX005 (ip), vehicle: saline with Tween-80.

SMILES strings stand for the structures. “And” between values parts separate entries of the source, which are not always exact repeats. Equal values may be shown once. Inconclusive results and toxic doses are left out.

Regarding `CCCCCCCCCCCCCCCCCCCC`, the T/C is, setting by setting: (dose: 6.25 mg/kg/injection, schedule: Q01DX009 (ip), vehicle: other) 112 % of control; (dose: 12.5 mg/kg/injection, schedule: Q01DX009 (ip), vehicle: other) 90 % of control; (dose: 25.0 mg/kg/injection, schedule: Q01DX009 (ip), vehicle: other) 111 % of control; (dose: 50.0 mg/kg/injection, schedule: Q04DX003 (ip), vehicle: other) 91 % of control; (dose: 100.0 mg/kg/injection, schedule: Q04DX003 (ip), vehicle: other) 91 % of control.
On to `Cc1ccc(NCc2ccccn2)nc1`, for which the T/C was 99 % of control under setting [1] and 89 % of control under setting [2].
For the compound `CCOC(=O)/C=C(\Br)C(=O)OCC`, the T/C was 108 % of control (dose: 3.15 mg/kg/injection, schedule: Q01DX009 (ip), vehicle: saline with Tween-80); 99 % of control (dose: 6.25 mg/kg/injection, schedule: Q01DX009 (ip), vehicle: saline with Tween-80); 119 % of control (dose: 12.5 mg/kg/injection, schedule: Q01DX009 (ip), vehicle: saline with Tween-80).
On to `CCCCOc1cc2c(cc1C(C)c1ccccc1)OCO2` (configuration not stated), for which the T/C is 94 % of control (dose: 12.5 mg/kg/injection, schedule: Q01DX005 (ip), vehicle: saline with Tween-80); 91 % of control (dose: 25.0 mg/kg/injection, schedule: Q01DX005 (ip), vehicle: saline with Tween-80); 101 % of control and 90 % of control under setting [1].
Regarding `CNC(=O)OCc1nc(SC)n(-c2ccccc2)c1COC(=O)NC`, the T/C (dose: 12.5 mg/kg/injection, schedule: Q01DX005 (ip), vehicle: distilled water + Tween-80) was 99 % of control; the T/C (dose: 25.0 mg/kg/injection, schedule: Q01DX005 (ip), vehicle: distilled water + Tween-80) was 101 % of control; the T/C (dose: 50.0 mg/kg/injection, schedule: Q01DX005 (ip), vehicle: distilled water + Tween-80) was 99 % of control and 102 % of control and 92 % of control; the T/C (dose: 100.0 mg/kg/injection, schedule: Q01DX005 (ip), vehicle: distilled water + Tween-80) was 101 % of control and 106 % of control and 108 % of control; the T/C (dose: 200.0 mg/kg/injection, schedule: Q01DX005 (ip), vehicle: distilled water + Tween-80) was 113 % of control; the T/C (dose: 400.0 mg/kg/injection, schedule: Q01DX005 (ip), vehicle: distilled water + Tween-80) is 99 % of control.
On to `CSc1nc(N)c(C(=O)Nc2ccccc2)s1`, for which the T/C runs as follows: under setting [3], 103 % of control; under setting [4], 101 % of control; under setting [5], 100 % of control.
With `Nc1nc2c(=O)[nH]c(=O)[nH]c2n1C1OC(CO)C(O)C1O` (configuration not stated), the T/C under setting [6] was 117 % of control.
On to `CCCCCCOCC(=O)O`, for which the T/C reads like this: (dose: 50.0 mg/kg/injection, schedule: Q01DX009 (ip), vehicle: saline with Tween-80) 102 % of control; (dose: 100.0 mg/kg/injection, schedule: Q01DX009 (ip), vehicle: saline with Tween-80) 91 % of control.
As for `COc1cc(C/C(=N/N=C(N)N)C(=O)O)cc(OC)c1OC`, the T/C reads like this: (dose: 100.0 mg/kg/injection, schedule: Q01DX001 (ip), vehicle: saline) 99 % of control; (dose: 200.0 mg/kg/injection, schedule: Q01DX001 (ip), vehicle: saline) 100 % of control; (dose: 400.0 mg/kg/injection, schedule: Q01DX001 (ip), vehicle: saline) 100 % of control.
As to `CC(C)C12CN1C2(c1ccccc1)c1ccccc1` (configuration not stated), the T/C by setting is: under setting [6], 100 % of control; (dose: 120.0 mg/kg/injection, schedule: Q01DX005 (ip), vehicle: saline with Tween-80) 106 % of control; (dose: 240.0 mg/kg/injection, schedule: Q01DX005 (ip), vehicle: saline with Tween-80) 107 % of control.
`Cc1cc(N(CCCl)CCCl)ccc1NC(=O)c1ccccc1`: the T/C (dose: 50.0 mg/kg/injection, schedule: Q04DX003 (ip), vehicle: Klucel (hydroxypropylcellulose) (HPC)) was 109 % of control; the T/C (dose: 100.0 mg/kg/injection, schedule: Q04DX003 (ip), vehicle: Klucel (hydroxypropylcellulose) (HPC)) was 118 % of control; the T/C (dose: 200.0 mg/kg/injection, schedule: Q04DX003 (ip), vehicle: Klucel (hydroxypropylcellulose) (HPC)) was 116 % of control.
Turning to `COC(=O)C1[C@@H](C(=O)c2ccccc2)N2C=Cc3ccccc3[C@@H]2[C@H]1C(=O)OC` (some centres not stated), the T/C is, setting by setting: (dose: 60.0 mg/kg/injection, schedule: Q01DX005 (ip), vehicle: saline + Tween-80 + alcohol) 93 % of control; (dose: 120.0 mg/kg/injection, schedule: Q01DX005 (ip), vehicle: saline + Tween-80 + alcohol) 93 % of control; (dose: 240.0 mg/kg/injection, schedule: Q01DX005 (ip), vehicle: saline + Tween-80 + alcohol) 92 % of control.
For the compound `CCC(=O)/C=C/c1ccc(N(Cl)Cl)cc1`, the T/C reads like this: (dose: 25.0 mg/kg/injection, schedule: Q01DX001 (ip), vehicle: Klucel (hydroxypropylcellulose) (HPC)) 107 % of control; (dose: 50.0 mg/kg/injection, schedule: Q01DX001 (ip), vehicle: Klucel (hydroxypropylcellulose) (HPC)) 106 % of control; (dose: 100.0 mg/kg/injection, schedule: Q01DX001 (ip), vehicle: Klucel (hydroxypropylcellulose) (HPC)) 104 % of control.
With `O=C(O)c1cnc2cc3c(cc2c1Nc1ccc2c(c1)OCO2)OCO3`, the T/C was 93 % of control (dose: 60.0 mg/kg/injection, schedule: Q01DX005 (ip), vehicle: Klucel (hydroxypropylcellulose) (HPC)); 92 % of control (dose: 120.0 mg/kg/injection, schedule: Q01DX005 (ip), vehicle: Klucel (hydroxypropylcellulose) (HPC)); 96 % of control (dose: 240.0 mg/kg/injection, schedule: Q01DX005 (ip), vehicle: Klucel (hydroxypropylcellulose) (HPC)).
Take `c1ccc2c(c1)OCCN1CCNC21` (configuration not stated): the T/C is 100 % of control (dose: 100.0 mg/kg/injection, schedule: Q04DX003 (ip), vehicle: saline); 102 % of control (dose: 200.0 mg/kg/injection, schedule: Q04DX003 (ip), vehicle: saline); 101 % of control (dose: 400.0 mg/kg/injection, schedule: Q04DX003 (ip), vehicle: saline).
For `Cc1ccc(S(=O)(=O)NN=C(C(=O)O)C(=O)O)cc1`, the T/C is 101 % of control (dose: 12.5 mg/kg/injection, schedule: Q01DX009 (ip), vehicle: distilled water + Tween-80); 102 % of control (dose: 25.0 mg/kg/injection, schedule: Q01DX009 (ip), vehicle: distilled water + Tween-80); 100 % of control (dose: 50.0 mg/kg/injection, schedule: Q01DX009 (ip), vehicle: distilled water + Tween-80); 90 % of control (dose: 200.0 mg/kg/injection, schedule: Q01DX009 (ip), vehicle: distilled water + Tween-80).
As to `COc1ccc(-c2cc(C(=O)Nc3cc(C(F)(F)F)cc(C(F)(F)F)c3)c3ccccc3n2)cc1`, the T/C under setting [1] is 91 % of control; the T/C (dose: 100.0 mg/kg/injection, schedule: Q01DX005 (ip), vehicle: DMSO) is 118 % of control; the T/C under setting [2] was 89 % of control; the T/C (dose: 200.0 mg/kg/injection, schedule: Q01DX005 (ip), vehicle: DMSO) was 118 % of control; the T/C (dose: 200.0 mg/kg/injection, schedule: Q01DX005 (ip), vehicle: saline with Tween-80) is 93 % of control; the T/C (dose: 400.0 mg/kg/injection, schedule: Q01DX005 (ip), vehicle: DMSO) was 96 % of control.
As for `O=C1c2ccccc2-c2nsc3c(C(Br)Br)ccc1c23`, the T/C reads like this: (dose: 50.0 mg/kg/injection, schedule: Q01DX005 (ip), vehicle: Klucel (hydroxypropylcellulose) (HPC)) 99 % of control; (dose: 100.0 mg/kg/injection, schedule: Q01DX005 (ip), vehicle: Klucel (hydroxypropylcellulose) (HPC)) 87 % of control; (dose: 200.0 mg/kg/injection, schedule: Q01DX005 (ip), vehicle: Klucel (hydroxypropylcellulose) (HPC)) 91 % of control.
With `CN(C(=S)SSC(=S)N(C)c1ccccc1)c1ccccc1`, the T/C (dose: 25.0 mg/kg/injection, schedule: Q01DX009 (ip), vehicle: Klucel (hydroxypropylcellulose) (HPC)) is 91 % of control; the T/C under setting [3] is 93 % of control; the T/C under setting [4] was 97 % of control; the T/C under setting [5] is 101 % of control.
Take `CC(=O)OCC1OC([S-])C(OC(C)=O)C(OC(C)=O)C1OC(C)=O.CC[PH+](CC)CC.CC[PH+](CC)CC.[Au].[Au]` (configuration not stated): the T/C by setting is: (dose: 5.0 mg/kg/injection, schedule: Q01DX009 (ip), vehicle: Klucel (hydroxypropylcellulose) (HPC)) 121 % of control; (dose: 10.0 mg/kg/injection, schedule: Q01DX009 (ip), vehicle: Klucel (hydroxypropylcellulose) (HPC)) 163 % of control.
As to `Nc1cccc(CCCCc2ccccc2)c1`, the T/C was 103 % of control (dose: 100.0 mg/kg/injection, schedule: Q04DX002 (ip), vehicle: saline) and 110 % of control (dose: 200.0 mg/kg/injection, schedule: Q04DX002 (ip), vehicle: saline).
